Data on six compounds can be found in patent US6054490A, “Use of sesquiterpenes for inhibiting oxidative enzymes” (Zylepsis Limited, priority 1995, dated 2000).

For data set [1] the following is noted: racemic nitrendipine; cited from earlier work.
For data set [2] the following is noted: oral administration with water; cited from earlier work.
In a further data set the test system is CYP3A4. The settings on record: cited from earlier work.
The test system of data set [3] is felodipine first-pass metabolism. As to conditions: in vivo; cited from earlier work.
Data set [4] concerns the target T1, cytochrome P450 3A4 (Homo sapiens, UniProt P08684).
T1 construct: made in house; host or cells: Saccharomyces cerevisiae strain AH22, vector pAAH5 (p3A4); microsomal fractions
The data set is described as follows: Inhibition of cyclosporin A metabolism (3 metabolites M1, M6, M21) by yeast-expressed P450 3A4 microsomes. Type of data set: biochemical. As to the method:
Human cytochrome P450 3A4 was expressed using the vector pAAH5 (p3A4) in Saccharomyces cerevisiae strain AH22 (Guengerich et al., 1991). Plasmid DNA was prepared using Promega's Wizard kit and S. cerevisiae strain AH22 (a his4-519 leu2-3,2-112) was used for transformation. Transformants were grown and maintained at 30° C. on minimal medium containing 2% (w/v) glucose, 0.67% (w/v) Difco yeast nitrogen base without amino acids and 20 μg/ml histidine. Cytochrome P450 content and substrate binding studies were carried out spectrally using a Philips PU8800 US/Vis scanning spectrophotometer according to Omura and Sato (1964) and Jefcoate (1979) respectively. Protein content was determined by the method of Lowry et al. 1956. […] CO was bubbled into the sample cuvette and the difference spectrum was recorded between 390-500 nm. […] Nootkatone was added to the microsomal fractions in the sample cuvette but to the buffer in the reference cuvette and difference spectra recorded between 350-500 nm. […]
The ethyl acetate extracts from biotransformation studies were directly spotted on to TLC plates and developed in solvent system heptane/pyridine/ethyl acetate (100/75/1 v/v) in a chromatographic tank lined with a blotting paper the same size as the TLC plate. […] The Rf valves of spots were measured and compared to the literature. […]

Data set [5] addresses T1, cytochrome P450 3A4. The data set is described as follows: biochemical. Type of data set: binding. As to the method:
Human cytochrome P450 3A4 was expressed using the vector pAAH5 (p3A4) in Saccharomyces cerevisiae strain AH22 (Guengerich et al., 1991). Plasmid DNA was prepared using Promega's Wizard kit and S. cerevisiae strain AH22 (a his4-519 leu2-3,2-112) was used for transformation. Transformants were grown and maintained at 30° C. on minimal medium containing 2% (w/v) glucose, 0.67% (w/v) Difco yeast nitrogen base without amino acids and 20 μg/ml histidine. Cytochrome P450 content and substrate binding studies were carried out spectrally using a Philips PU8800 US/Vis scanning spectrophotometer according to Omura and Sato (1964) and Jefcoate (1979) respectively. Protein content was determined by the method of Lowry et al. 1956. Yeast microsomal fractions used in reduced carbon monoxide difference spectra, substrate binding studies and metabolism studies were prepared as described previously (Mehmood et al., 1995). This involved mechanical breakage of the yeast cells (harvested at 5×10^7 cells/ml) using a Braun MSK homogeniser and centrifugation to pellet cells and mitochondria prior to harvesting microsomes after 1 h, 100000 g. […] CO was bubbled into the sample cuvette and the difference spectrum was recorded between 390-500 nm. […] Nootkatone was added to the microsomal fractions in the sample cuvette but to the buffer in the reference cuvette and difference spectra recorded between 350-500 nm.

Data set [6] concerns cytochrome P450 or related enzyme system. The data set is described as follows: Inhibition of the first enzyme catalysed oxidative step (conversion of valencene to nootkatone). Type of data set: cell-based, both eukaryotes and prokaryotes. The settings on record: valencene oxidation; many organisms, eukaryotes and prokaryotes. The source says: In addition to plant produced nootkatone a number of enzyme systems produced by organisms other than higher plants have the capability of converting synthetic precursors of nootkatone to nootkatone itself. Thus, for example, a variety of microorganisms can oxidise valencene to nootkatone.
Whilst investigating such transformations as effected by bacteria and fungi, it was deduced that the conversion was the result of two oxidative steps. The first was indicated to be carried out by an enzyme thought to be a cytochrome P450 or related enzyme system. The second appeared as an oxidoreductase transformation.

Data set [7] can be described thus: Toxicity of nootkatone at concentrations in grapefruit juice. The settings on record: at concentrations found in normal strength grapefruit juice (approximately 7 mg/200 ml).

T1 sequence (P08684 whole entry): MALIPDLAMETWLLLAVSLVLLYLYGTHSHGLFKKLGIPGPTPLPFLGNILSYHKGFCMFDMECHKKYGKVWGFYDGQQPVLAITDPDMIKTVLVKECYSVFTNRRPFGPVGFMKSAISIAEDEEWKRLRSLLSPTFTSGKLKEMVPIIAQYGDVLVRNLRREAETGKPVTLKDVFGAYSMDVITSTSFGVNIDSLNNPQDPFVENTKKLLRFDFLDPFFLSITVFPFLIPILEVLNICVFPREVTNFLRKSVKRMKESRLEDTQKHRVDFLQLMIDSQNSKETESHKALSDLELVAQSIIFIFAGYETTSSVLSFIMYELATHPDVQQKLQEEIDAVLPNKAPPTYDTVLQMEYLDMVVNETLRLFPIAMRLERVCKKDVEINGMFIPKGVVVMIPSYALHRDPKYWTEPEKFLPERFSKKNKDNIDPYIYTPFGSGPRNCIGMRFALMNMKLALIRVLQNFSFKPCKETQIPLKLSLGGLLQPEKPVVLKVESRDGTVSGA

Take `CCOC(=O)C1=C(C)NC(C)=C(C(=O)OC)C1c1cccc([N+](=O)[O-])c1` (racemic) [nitrendipine]: in data set [1], the gastrointestinal absorption entry is reported as “almost complete” and the systemic bioavailability is 5% to 30.

In the case of `CCOC(=O)C1=C(C)NC(C)=C(C(=O)OC)C1c1cccc(Cl)c1Cl` (stereo not shown) [felodipine], the average bioavailability in data set [2] is recorded as 15%. As for `CC(=O)N1CCN(c2ccc(OCC3COC(Cn4ccnc4)(c4ccc(Cl)cc4Cl)O3)cc2)CC1` (stereo not shown) [ketoconazole], the “inhibition of CYP3A4” value in the data set with CYP3A4 is “known to inhibit CYP3A4”. As for `C[C@@H]1O[C@@H](O[C@H]2[C@H](Oc3cc(O)c4c(c3)O[C@H](c3ccc(O)cc3)CC4=O)O[C@H](CO)[C@@H](O)[C@@H]2O)[C@H](O)[C@H](O)[C@H]1O` [naringin], in data set [3], the “interaction with felodipine compared with grapefruit juice” value is recorded as “less interaction”.

With `C=C(C)C1CCC2=CC(O)CC(C)C2(C)C1` (stereo not shown) [nootkatol], on cytochrome P450 3A4 [4] (similar experiments to nootkatone), the “inhibitory effect compared with nootkatone” value is “less marked inhibitory effect”. Broadly, the Kd is a measure of binding affinity in units of concentration. High values mean lower affinity, low ones higher affinity. Usually IC50 stands for the concentration at which inhibition is half-maximal. `C=C(C)[C@@H]1CCC2=CC(=O)C[C@@H](C)[C@]2(C)C1` [nootkatone] registered a Kd on cytochrome P450 3A4 [5] of 80 to 100 µM. Moreover, the “inhibition of the first enzyme catalysed oxidative step” value in data set [6] was “acts as an inhibitor of the first enzyme catalysed oxidative step”. For the same compound, the toxicity entry in data set [7] is “does not appear to be toxic”. The IC50 at cytochrome P450 3A4 [4] was < 140 µM.
